Like-named read-outs stand apart in the source and are kept apart here.
How the values were obtained:
CDK2/cyclin A2 = molecular target: T1, CDK2/cyclin A2 (Homo sapiens, UniProt P24941); assay: Human CDK2/cyclin A2 inhibitory activity (QS S Assist CDK2/Cyclin A2_FP Kit, IMAP fluorescence polarization); type: biochemical
T1 construct: purchased Carna Biosciences, Inc. QS S Assist CDK2/Cyclin A2_FP Kit
In short: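 Kinase activity read as fluorescence polarization (485/535 nm) after phosphorylated fluorescent substrate binds IMAP reagent (30 min, RT, dark). Enzyme (2.5 ng/well) reacted 60 min at RT with ATP/substrate/metal in HEPES pH 7.4 buffer with Tween 20 and DTT; no-enzyme wells define 0% activity; IC50 by curve fit.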

CDK4/cyclin D3 = molecular target: T2, CDK4/cyclin D3 (Homo sapiens, UniProt P11802); assay: Human CDK4/cyclin D3 inhibitory activity (QS S Assist CDK4/Cyclin D3_FP Kit, IMAP fluorescence polarization); type: biochemical
T2 construct: purchased Carna Biosciences, Inc. QS S Assist CDK4/Cyclin D3_FP Kit
In short: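 IMAP fluorescence polarization kit: CDK4/cyclin D3 at 12.5-25 ng/well with kit ATP/substrate/metal mix in 20 mM HEPES pH 7.4, 0.01% Tween20, 2 mM DTT, 45 min at room temperature. FP read at 485/535 nm after 30 min binding; IC50 from dose-response fit of percent inhibition versus enzyme and no-enzyme controls.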

[1] = Human CDK2/cyclin A2 inhibitory activity, read-out: CDK2 Activity symbol
[2] = Human CDK4/cyclin D3 inhibitory activity, read-out: CDK4 Activity symbol
[3] = 50% inhibitory concentration against CDK2/cyclin A2, given as class symbol
[4] = 50% inhibitory concentration against CDK4/cyclin D3, given as class symbol

T2 sequence (P11802 whole entry): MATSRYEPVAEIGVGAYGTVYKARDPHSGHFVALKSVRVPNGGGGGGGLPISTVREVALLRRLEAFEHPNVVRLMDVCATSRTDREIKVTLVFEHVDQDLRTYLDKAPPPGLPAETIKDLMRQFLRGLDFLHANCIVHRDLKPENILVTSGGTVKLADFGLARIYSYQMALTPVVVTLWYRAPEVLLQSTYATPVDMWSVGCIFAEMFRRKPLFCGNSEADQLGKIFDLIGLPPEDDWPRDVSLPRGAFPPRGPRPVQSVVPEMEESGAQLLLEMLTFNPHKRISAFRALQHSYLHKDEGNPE
T2 sequence (P30281 whole entry partner): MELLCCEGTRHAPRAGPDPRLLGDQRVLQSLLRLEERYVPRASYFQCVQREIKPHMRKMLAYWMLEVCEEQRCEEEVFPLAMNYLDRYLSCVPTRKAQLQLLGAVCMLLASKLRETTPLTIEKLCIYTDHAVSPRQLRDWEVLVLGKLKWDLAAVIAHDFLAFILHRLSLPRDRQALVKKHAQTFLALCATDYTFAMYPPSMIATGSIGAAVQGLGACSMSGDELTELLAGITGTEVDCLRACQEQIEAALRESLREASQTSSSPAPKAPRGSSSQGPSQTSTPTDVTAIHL

Compound | IC50 (CDK2/cyclin A2; [1]) [nM] | IC50 (CDK4/cyclin D3; [2]) [nM] | IC50 (CDK2/cyclin A2; [3]) [nM] | IC50 (CDK4/cyclin D3; [4]) [nM]
C[C@@H](O)c1cc2cnc(Nc3ccc(N4CCNCC4)nn3)nc2c(NCC2CCOCC2)n1 [Compound 313] | ≥ 100 | < 10 |  | 
CC(=O)c1cc2cnc(Nc3ccc(N4CCNCC4)cn3)nc2c(NC2CCOCC2)n1 [Compound 56] | ≥ 100 | < 10 |  | 
CC(C)Nc1nc(C2CCCO2)cc2cnc(Nc3ccc(CN4CCNCC4)cn3)nc12 (single isomer, unassigned) [Compound 729] |  |  | ≥ 100 | < 10
CC(C)Nc1nc([C@@H](C)O)cc2cnc(Nc3ccc(N4CCN(C5COC5)CC4)nn3)nc12 [Compound 682, (R)-1-(8-(isopropylamino)-2-((6-(4-(oxetan-3-yl)piperazin-1-yl)pyridazin-3-yl)amino)pyrido[3,4-d]pyrimidin-6-yl)ethanol] |  |  | ≥ 100 | < 10
CC(C)Nc1nc([C@@H](C)O)cc2cnc(Nc3ccc(N4CCN(C(=O)C5CCCO5)CC4)nn3)nc12 (stereo partly shown) [Compound 1183] |  |  | ≥ 100 | < 10
CC(C)Nc1nc([C@@H](C)O)cc2cnc(Nc3ccc(O[C@@H]4CCC[C@H]4N)cn3)nc12 [Compound 772] |  |  | ≥ 100 | < 10
C[C@@H](O)c1cc2cnc(Nc3ccc(CN4CCNCC4)cn3)nc2c(N[C@@H]2CCCOC2)n1 [Compound 257] | ≥ 100 | < 10 |  | 
CC(C)Nc1nc([C@@H](C)O)cc2cnc(Nc3ccc4c(n3)CCN(C(=O)[C@@H](N)C(C)C)C4)nc12 [Compound 931] |  |  | ≥ 100 | < 10
CC(C)Nc1nc(C(F)F)cc2cnc(Nc3ccc(N4CCC(O)CC4)cn3)nc12 [Compound 50] | 10 to 100 | < 10 |  | 
CC(C)Nc1nc([C@@H](C)O)cc2cnc(Nc3ccc(N4CC5(CCNC5)C4)nn3)nc12 [Compound 574] | ≥ 100 | < 10 |  | 
Cc1ccc(Nc2ncc3cc(C(F)F)nc(NC(C)C)c3n2)nc1 [Compound 157] | ≥ 100 | 10 to 100 |  | 
FC(F)c1cc2cnc(Nc3ccc(N4CCNCC4)cn3)nc2c(NC2CCCC2)n1 [Compound 1] | 10 to 100 | < 10 |  | 
CC(C)Nc1nc(C2CCCO2)cc2cnc(Nc3ccc(N4CCNCC4)nn3)nc12 (single isomer, unassigned) [Compound 714] |  |  | ≥ 100 | ≥ 100
CNCCCOc1ccc(Nc2ncc3cc([C@@H](C)OC)nc(NC(C)C)c3n2)nc1 [Compound 526] | ≥ 100 | < 10 |  | 
CO[C@H](C)c1cc2cnc(Nc3ccc(CN4CCNCC4)cn3)nc2c(NCCCF)n1 [Compound 1227] |  |  | ≥ 100 | < 10
CC(C)Nc1nc([C@H](C)F)cc2cnc(Nc3ccc(N4CCNCC4)nn3)nc12 [Compound 698] |  |  | ≥ 100 | < 10
CC(C)Nc1nc(C2CCOC2)cc2cnc(Nc3ccc(CN4CCNCC4)cn3)nc12 (stereo not shown) [Compound 881] |  |  | ≥ 100 | < 10
CC(C)Nc1nc([C@@H](C)O)cc2cnc(Nc3ccc(SCCN(C)C)nn3)nc12 [Compound 614] | ≥ 100 | < 10 |  | 
CC(C)Nc1nc(C(C)O)cc2cnc(Nc3ccc(N4CCNC(C(F)(F)F)C4)nn3)nc12 (single isomer, unassigned) [Compound 989] |  |  | ≥ 100 | < 10
CNC(=O)CN1CCN(c2ccc(Nc3ncc4cc([C@@H](C)O)nc(NC(C)C)c4n3)nn2)CC1 [Compound 960] |  |  | ≥ 100 | < 10
CNCC(C)(C)c1ccc(Nc2ncc3cc([C@@H](C)O)nc(NC(C)C)c3n2)nc1 [Compound 263] | ≥ 100 | < 10 |  | 
CCCNc1nc(C(C)=O)cc2cnc(Nc3ccc(CN4CCN(CCO)CC4)cn3)nc12 [Compound 974] |  |  | ≥ 100 | 10 to 100
CO[C@H](C)c1cc2cnc(Nc3ccc(CN4CCN(C(=O)C5CCOC5)CC4)cn3)nc2c(NC(C)C)n1 (stereo partly shown) [Compound 1158] |  |  | ≥ 100 | < 10
O=C(O)C1CCN(Cc2ccc(Nc3ncc4cc(C(F)F)nc(N[C@H]5CCCOC5)c4n3)nc2)CC1 [Compound 806] |  |  | ≥ 100 | < 10
CC(C)Nc1nc(C(F)F)cc2cnc(Nc3ccc(N)cn3)nc12 [Compound 87] | < 10 | < 10 |  | 
CC(C)Nc1nc(C2CCOC2)cc2cnc(Nc3ccc(CN4CCN(CCO)CC4)cn3)nc12 (stereo not shown) [Compound 1010] |  |  | ≥ 100 | < 10
CC(C)Nc1nc(C(F)F)cc2cnc(Nc3ccc(CN4CCCC(CO)C4)cn3)nc12 (stereo not shown) [Compound 127] | 10 to 100 | < 10 |  | 
CN(C)CCN1CCc2nc(Nc3ncc4cc(C5CCOC5)nc(N[C@H]5CC[C@H](O)CC5)c4n3)ccc2C1 (stereo partly shown) [Compound 1181] |  |  | ≥ 100 | < 10
CCCNc1nc([C@@H](C)OC)cc2cnc(Nc3ccc(N4CCNCC4)cn3)nc12 [Compound 920] |  |  | ≥ 100 | < 10

Reference: patent US10124004B2, “Pyrido[3,4-d]pyrimidine derivative and pharmaceutically acceptable salt thereof” (Teijin Pharma Limited, priority 2015, dated 2018)
